Experiments:
GTPCH = conditions: competes with GTP, a substrate for GTPCH (Gross and Levi 1992); cited from earlier work
human GTPCH = experiment: GCH1 siRNA transfection of GCHtet-off and MCF7 cells, expression of GTPCH and phosphor-Akt; format: cell-based; conditions: 10 nM siRNA, Lipofactamine RNAiMAX, 48 hours
Method: GCHtet-off cells (described above) and MCF7 cells (4×10^5/well) were cultured in a 24-well plate and transfected with 10 nM of GCH1 siRNA (comprising the sequences of Seq ID Nos: 1 and 2) and scramble siRNA (SCR), respectively using Lipofactamine RNAiMAX. After 48 hours, the cells were harvested and the expression of human GTPCH, phosphor-Akt and GAPDH was determined. The results are illustrated in FIG. 8. A correlation between human GTPCH expression and phosphor-Akt was observed.

Compound	GTPCH protein activity (GTPCH)	Akt phosphorylation (human GTPCH)	GTPCH expression (human GTPCH)
Nc1cc(O)nc(N)n1 [DAHP, 2,4-diamino-6-hydroxypyrimidine]	inhibits GTPCH protein activity		
GCH1 siRNA: siRNA comprising the sequences of Seq ID Nos: 1 and 2, designed to reduce GTPCH expression (chain 1 CCUAAACGAUGCUAUAUUUTT; chain 2 AAAUAUAGCAUCGUUUAGGTT; chemistry not given here)		Reduction	Downregulated
